Source: PubChem BioAssay AID1963440 (Molecular Pharmacology Branch, DTP, NCI, 2024)

Test system: NCI-H1417 complex spheroids, growth % test/control
Assay: Anticancer human tumor NCI-H1417 cell line growth inhibition [Asc];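 also: spheroids exposed to compounds for 7 days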;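 as to viability, T/C: 100% = DMSO vehicle control wells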
Conditions: for IC50: curve of first compound; for viability, T/C: stronger effect = lower value
Method in brief: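 Concentration series start at each agent's clinical Cmax, or at 10 microM when none is established, and drop in half-log steps; agents are applied alone or together to complex spheroids built with HUVEC and hMSC.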

[1] = second compound 0.01 µM, first compound 0.0316 µM
[2] = second compound 0.01 µM, first compound 0.1 µM
[3] = second compound 0.01 µM, first compound 0.316 µM
[4] = second compound 0.01 µM, first compound 1 µM
[5] = second compound 0.0316 µM, first compound 0.0316 µM
[6] = second compound 0.0316 µM, first compound 0.1 µM
[7] = second compound 0.0316 µM, first compound 0.316 µM
[8] = second compound 0.0316 µM, first compound 1 µM
[9] = second compound 0.1 µM, first compound 0.0316 µM
[10] = second compound 0.1 µM, first compound 0.1 µM
[11] = second compound 0.1 µM, first compound 0.316 µM
[12] = second compound 0.1 µM, first compound 1 µM
[13] = second compound 0.316 µM, first compound 0.0316 µM
[14] = second compound 0.316 µM, first compound 0.1 µM
[15] = second compound 0.316 µM, first compound 0.316 µM
[16] = second compound 0.316 µM, first compound 1 µM
[17] = second compound 1 µM, first compound 0.0316 µM
[18] = second compound 1 µM, first compound 0.1 µM
[19] = second compound 1 µM, first compound 0.316 µM
[20] = second compound 1 µM, first compound 1 µM
[21] = second compound 0.01 µM, first compound 0.00316 µM
[22] = second compound 0.01 µM, first compound 0.01 µM
[23] = second compound 0.0316 µM, first compound 0.00316 µM
[24] = second compound 0.0316 µM, first compound 0.01 µM
[25] = second compound 0.1 µM, first compound 0.00316 µM
[26] = second compound 0.1 µM, first compound 0.01 µM
[27] = second compound 0.316 µM, first compound 0.00316 µM
[28] = second compound 0.316 µM, first compound 0.01 µM
[29] = second compound 1 µM, first compound 0.00316 µM
[30] = second compound 1 µM, first compound 0.01 µM

`C=CC(=O)N1CCN(c2nc(=O)n(-c3c(C)ccnc3C(C)C)c3nc(-c4c(O)cccc4F)c(F)cc23)C(C)C1` (stereo not given) + CNC(C)C(=O)NC1CN(S(=O)(=O)c2cccc(S(=O)(=O)N3CCC4CCC(C(=O)NC(c5ccccc5)c5ccccc5)N4C(=O)C(NC(=O)C(C)NC)C3)c2)CCC2CCC(C(=O)NC(c3ccccc3)c3ccccc3)N2C1=O gave an IC50 (second compound 0.01 µM) of over 10000 nM, an IC50 (second compound 0.0316 µM) of over 10000 nM and an IC50 (second compound 0.1 µM) of over 10000 nM. It also gave an IC50 (second compound 0.316 µM) of over 10000 nM, an IC50 (second compound 1 µM) of over 10000 nM and a viability, T/C [1] of 94%. The viability, T/C [2] was 90%, the viability, T/C [3] was 97.6% and the viability, T/C [4] was 96.2%. It also gave a viability, T/C (second compound 0.01 µM, first compound 3.16 µM) of 102%, a viability, T/C (second compound 0.01 µM, first compound 10 µM) of 103% and a viability, T/C [5] of 88.1%. For the same compound, the viability, T/C [6] was 99.8%, the viability, T/C [7] was 89.9% and the viability, T/C [8] was 94.4%. The viability, T/C (second compound 0.0316 µM, first compound 3.16 µM) was 97.6%, the viability, T/C (second compound 0.0316 µM, first compound 10 µM) was 87.8% and the viability, T/C [9] was 99.3%. It also gave a viability, T/C [10] of 87.5%, a viability, T/C [11] of 96.7% and a viability, T/C [12] of 96.9%. For the same compound, the viability, T/C (second compound 0.1 µM, first compound 3.16 µM) was 92%, the viability, T/C (second compound 0.1 µM, first compound 10 µM) was 88.2% and the viability, T/C [13] was 84.6%. It also gave a viability, T/C [14] of 94.3%, a viability, T/C [15] of 94.6% and a viability, T/C [16] of 92.5%. For the same compound, the viability, T/C (second compound 0.316 µM, first compound 3.16 µM) was 93.8%, the viability, T/C (second compound 0.316 µM, first compound 10 µM) was 86.2% and the viability, T/C [17] was 90.9%. For the same compound, the viability, T/C [18] was 101%, the viability, T/C [19] was 89.4% and the viability, T/C [20] was 90.2%. The viability, T/C (second compound 1 µM, first compound 3.16 µM) was 104% and the viability, T/C (second compound 1 µM, first compound 10 µM) was 93.3%.

`COc1c(OCCCN2CCOCC2)ccc2c3n(c(=NC(=O)c4cnc(N)nc4)nc12)CCN3` + CNC(C)C(=O)NC1CN(S(=O)(=O)c2cccc(S(=O)(=O)N3CCC4CCC(C(=O)NC(c5ccccc5)c5ccccc5)N4C(=O)C(NC(=O)C(C)NC)C3)c2)CCC2CCC(C(=O)NC(c3ccccc3)c3ccccc3)N2C1=O showed an IC50 (second compound 0.01 µM) of over 1000 nM, an IC50 (second compound 0.0316 µM) of over 1000 nM and an IC50 (second compound 0.1 µM) of over 1000 nM. The IC50 (second compound 0.316 µM) was over 1000 nM, the IC50 (second compound 1 µM) was over 1000 nM and the viability, T/C [21] was 95.5%. For the same compound, the viability, T/C [22] was 109%, the viability, T/C [1] was 100% and the viability, T/C [2] was 82.3%. The viability, T/C [3] was 79.4%, the viability, T/C [4] was 58.4% and the viability, T/C [23] was 96.1%. The viability, T/C [24] was 93.8%, the viability, T/C [5] was 91.1% and the viability, T/C [6] was 78.5%. It also gave a viability, T/C [7] of 77.2%, a viability, T/C [8] of 57.8% and a viability, T/C [25] of 95.4%. For the same compound, the viability, T/C [26] was 96.5%, the viability, T/C [9] was 96.6% and the viability, T/C [10] was 81.1%. The viability, T/C [11] was 71.4%, the viability, T/C [12] was 53.8% and the viability, T/C [27] was 99.4%. For the same compound, the viability, T/C [28] was 97.7%, the viability, T/C [13] was 87.2% and the viability, T/C [14] was 74.1%. It also gave a viability, T/C [15] of 69.2%, a viability, T/C [16] of 56.4% and a viability, T/C [29] of 97.7%. It also gave a viability, T/C [30] of 99%, a viability, T/C [17] of 90.1% and a viability, T/C [18] of 83.4%. It also gave a viability, T/C [19] of 77.2% and a viability, T/C [20] of 56.4%.

Work on `NC(=O)C(=Cn1cnc(-c2cc(C(F)(F)F)cc(C(F)(F)F)c2)n1)c1cncnc1` + CNC(C)C(=O)NC1CN(S(=O)(=O)c2cccc(S(=O)(=O)N3CCC4CCC(C(=O)NC(c5ccccc5)c5ccccc5)N4C(=O)C(NC(=O)C(C)NC)C3)c2)CCC2CCC(C(=O)NC(c3ccccc3)c3ccccc3)N2C1=O yielded an IC50 (second compound 0.01 µM) of over 300 nM, an IC50 (second compound 0.0316 µM) of 299 nM and an IC50 (second compound 0.1 µM) of 275 nM. For the same compound, the IC50 (second compound 0.316 µM) was 265 nM, the IC50 (second compound 1 µM) was 249 nM and the viability, T/C (second compound 0.01 µM, first compound 0.000949 µM) was 103%. The viability, T/C (second compound 0.01 µM, first compound 0.003 µM) was 93.3%, the viability, T/C (second compound 0.01 µM, first compound 0.00949 µM) was 99.5% and the viability, T/C (second compound 0.01 µM, first compound 0.03 µM) was 103%. The viability, T/C (second compound 0.01 µM, first compound 0.0949 µM) was 89.6%, the viability, T/C (second compound 0.01 µM, first compound 0.3 µM) was 63.3% and the viability, T/C (second compound 0.0316 µM, first compound 0.000949 µM) was 111%. It also gave a viability, T/C (second compound 0.0316 µM, first compound 0.003 µM) of 94.2%, a viability, T/C (second compound 0.0316 µM, first compound 0.00949 µM) of 93% and a viability, T/C (second compound 0.0316 µM, first compound 0.03 µM) of 102%. It also gave a viability, T/C (second compound 0.0316 µM, first compound 0.0949 µM) of 83.5%, a viability, T/C (second compound 0.0316 µM, first compound 0.3 µM) of 49.6% and a viability, T/C (second compound 0.1 µM, first compound 0.000949 µM) of 89.3%. The viability, T/C (second compound 0.1 µM, first compound 0.003 µM) was 104%, the viability, T/C (second compound 0.1 µM, first compound 0.00949 µM) was 105% and the viability, T/C (second compound 0.1 µM, first compound 0.03 µM) was 90.2%. It also gave a viability, T/C (second compound 0.1 µM, first compound 0.0949 µM) of 76%, a viability, T/C (second compound 0.1 µM, first compound 0.3 µM) of 47.8% and a viability, T/C (second compound 0.316 µM, first compound 0.000949 µM) of 110%. It also gave a viability, T/C (second compound 0.316 µM, first compound 0.003 µM) of 98.7%, a viability, T/C (second compound 0.316 µM, first compound 0.00949 µM) of 112% and a viability, T/C (second compound 0.316 µM, first compound 0.03 µM) of 92.2%. It also gave a viability, T/C (second compound 0.316 µM, first compound 0.0949 µM) of 86.7%, a viability, T/C (second compound 0.316 µM, first compound 0.3 µM) of 45.1% and a viability, T/C (second compound 1 µM, first compound 0.000949 µM) of 91.5%. It also gave a viability, T/C (second compound 1 µM, first compound 0.003 µM) of 92.7%, a viability, T/C (second compound 1 µM, first compound 0.00949 µM) of 93% and a viability, T/C (second compound 1 µM, first compound 0.03 µM) of 94.8%. It also gave a viability, T/C (second compound 1 µM, first compound 0.0949 µM) of 86.9% and a viability, T/C (second compound 1 µM, first compound 0.3 µM) of 42.6%.

`NC1CCC(NC2CC2c2ccccc2)CC1` (stereo not given) + CNC(C)C(=O)NC1CN(S(=O)(=O)c2cccc(S(=O)(=O)N3CCC4CCC(C(=O)NC(c5ccccc5)c5ccccc5)N4C(=O)C(NC(=O)C(C)NC)C3)c2)CCC2CCC(C(=O)NC(c3ccccc3)c3ccccc3)N2C1=O gave an IC50 (second compound 0.01 µM) of over 100 nM, an IC50 (second compound 0.0316 µM) of over 100 nM and an IC50 (second compound 0.1 µM) of over 100 nM. For the same compound, the IC50 (second compound 0.316 µM) was over 100 nM, the IC50 (second compound 1 µM) was over 100 nM and the viability, T/C (second compound 0.01 µM, first compound 0.000316 µM) was 93.4%. For the same compound, the viability, T/C (second compound 0.01 µM, first compound 0.001 µM) was 92.8%, the viability, T/C [21] was 88.7% and the viability, T/C [22] was 89.4%. For the same compound, the viability, T/C [1] was 84.2%, the viability, T/C [2] was 91% and the viability, T/C (second compound 0.0316 µM, first compound 0.000316 µM) was 106%. The viability, T/C (second compound 0.0316 µM, first compound 0.001 µM) was 80.6%, the viability, T/C [23] was 91.8% and the viability, T/C [24] was 81.8%. For the same compound, the viability, T/C [5] was 80.2%, the viability, T/C [6] was 80.4% and the viability, T/C (second compound 0.1 µM, first compound 0.000316 µM) was 84.8%. For the same compound, the viability, T/C (second compound 0.1 µM, first compound 0.001 µM) was 91%, the viability, T/C [25] was 85.5% and the viability, T/C [26] was 81.4%. The viability, T/C [9] was 82.9%, the viability, T/C [10] was 89.7% and the viability, T/C (second compound 0.316 µM, first compound 0.000316 µM) was 87.6%. The viability, T/C (second compound 0.316 µM, first compound 0.001 µM) was 99.3%, the viability, T/C [27] was 82% and the viability, T/C [28] was 80.8%. For the same compound, the viability, T/C [13] was 88.1%, the viability, T/C [14] was 105% and the viability, T/C (second compound 1 µM, first compound 0.000316 µM) was 97.2%. It also gave a viability, T/C (second compound 1 µM, first compound 0.001 µM) of 88.5%, a viability, T/C [29] of 89.7% and a viability, T/C [30] of 88%. The viability, T/C [17] was 84% and the viability, T/C [18] was 90.2%.
